Among the data in US20100184813A1, “CHEMICAL COMPOUNDS 553” (AstraZeneca AB, priority 2008, published 2010) are IC50 values, retold here.

This test has as its target T1, human DGAT1 (Homo sapiens, UniProt O75907).
T1 construct: made in house; host or cells: Sf9 insect cells (baculovirus); membrane fraction
T1 sequence (O75907 1-488): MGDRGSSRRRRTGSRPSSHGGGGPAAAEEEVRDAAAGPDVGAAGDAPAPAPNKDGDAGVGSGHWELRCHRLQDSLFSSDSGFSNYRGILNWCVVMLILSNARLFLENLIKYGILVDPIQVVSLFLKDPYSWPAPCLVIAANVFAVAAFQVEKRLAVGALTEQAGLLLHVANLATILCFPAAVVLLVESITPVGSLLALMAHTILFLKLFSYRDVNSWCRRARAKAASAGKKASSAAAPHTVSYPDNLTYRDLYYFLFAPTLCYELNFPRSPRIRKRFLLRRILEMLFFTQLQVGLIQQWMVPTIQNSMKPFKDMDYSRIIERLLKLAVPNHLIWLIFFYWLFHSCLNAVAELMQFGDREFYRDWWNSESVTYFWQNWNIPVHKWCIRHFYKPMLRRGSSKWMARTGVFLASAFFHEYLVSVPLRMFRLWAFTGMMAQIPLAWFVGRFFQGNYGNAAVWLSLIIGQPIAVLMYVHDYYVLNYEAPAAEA
The test can be described thus: Human Enzyme Assay (DGAT1 inhibition, 14C oleoyl coenzyme A, insect cell membranes). Type of test: biochemical. As to conditions: human DGAT1 expressed in sf9 insect cell membranes; usually a mean of 2 measurements. The procedure: See, for example, International Application WO 2005/044250.
The in vitro assay to identify DGAT1 inhibitors uses human DGAT1 expressed in insect cell membranes as the enzyme source (Proc. Natl. Acad. Sci. 1998, 95, 13018-13023). Briefly, sf9 cells were infected with recombinant baculovirus containing human DGAT1 coding sequences and harvested after 48 h. Cells were lysed by sonication and membranes isolated by centrifuging at 28000 rpm for 1 h at 4° C. on a 41% sucrose gradient. The membrane fraction at the interphase was collected, washed, and stored in liquid nitrogen.
DGAT1 activity was assayed by a modification of the method described by Coleman (Methods in Enzymology 1992, 209, 98-102). Compound at 0.0000256 μM-33 μM (final conc.) (typically 10 μM) was incubated with 4 μg/ml (final conc) membrane protein, 5 mM MgCl2, and 100 μM 1,2 dioleoyl-sn-glycerol (dissolved in acetone with a final assay conc. of acetone of 10%) in a total assay volume of 200 μl in a 96 well plate. The reaction was started by adding ^14C oleoyl coenzyme A (30 μM final concentration) and incubated at room temperature for 30 minutes. The reaction was stopped by adding 200 μl 2-propanol:heptane 7:1. Radioactive triolein product was separated into the organic phase by adding 300 μl heptane and 100 μl 0.1 M carbonate buffer pH 9.5. DGAT1 activity was quantified by counting aliquots of the upper heptane layer by liquid scintillography.
Stated figures are usually a mean of a number of measurements (usually 2 measurements) according to standard practice.
Consider `O=C(Nc1ccc([C@H]2CC[C@H](C(=O)O)CC2)cc1F)c1nnc(Nc2ccc(C(F)(F)F)cc2)o1` [Example 1, (1r,4r)-4-(3-Fluoro-4-(5-(4-(trifluoromethyl)phenylamino)-1,3,4-oxadiazole-2-carboxamido)phenyl)cyclohexanecarboxylic acid], for which the IC50 amounted to 16 nM. In turn, `O=C(Nc1ccc([C@H]2CC[C@H](C(=O)O)CC2)cc1F)c1nnc(Nc2ccc(OC(F)F)cc2)o1` [Example 2] yielded an IC50 of 28 nM.

In turn, `O=C(Nc1ccc([C@H]2CC[C@H](C(=O)O)CC2)cc1F)c1nnc(Nc2ccc(OC(F)(F)F)cc2)o1` [Example 3, (1r,4r)-4-(3-Fluoro-4-(5-(4-(trifluoromethoxyl)phenylamino)-1,3,4-oxadiazole-2-carboxamido)phenyl)cyclohexanecarboxylic acid] yielded an IC50 of 11 nM. This IC50 is about 2.5-fold lower than that of the molecule before. `O=C(Nc1ccc([C@H]2CC[C@H](C(=O)O)CC2)cc1F)c1nnc(Nc2cccc(Cl)c2)o1` [Example 4, (1r,4r)-4-(4-(5-(3-Chlorophenylamino)-1,3,4-oxadiazole-2-carboxamido)-3-fluorophenyl)cyclohexanecarboxylic acid] displayed an IC50 of 12 nM. In the case of `O=C(Nc1ccc([C@H]2CC[C@H](C(=O)O)CC2)cc1F)c1nnc(Nc2ccc(F)c(F)c2)o1` [Example 5, (1r,4r)-4-(4-(5-(3,4-Difluorophenylamino)-1,3,4-oxadiazole-2-carboxamido)-3-fluorophenyl)cyclohexanecarboxylic acid], it took 5.5 nM to reach half-maximal inhibition (IC50). Molecule `O=C(Nc1ccc([C@H]2CC[C@H](C(=O)O)CC2)cc1F)c1nnc(Nc2cc(F)c(F)cc2F)o1` [Example 6, (1r,4r)-4-(3-Fluoro-4-(5-(2,4,5-trifluorophenylamino)-1,3,4-oxadiazole-2-carboxamido)phenyl)cyclohexanecarboxylic acid] yielded an IC50 of 3.7 nM. `O=C(Nc1ccc([C@H]2CC[C@@H](C(=O)O)CC2)cc1F)c1nnc(Nc2ccc(F)c(F)c2)o1` [Example 7, (1s,4s)-4-(4-(5-(3,4-Difluorophenylamino)-1,3,4-oxadiazole-2-carboxamido)-3-fluorophenyl)cyclohexanecarboxylic acid] returned an IC50 of 9.2 nM. Compared with the last molecule, the IC50 is about 2.5-fold higher. The value for `O=C(Nc1ccc([C@H]2CC[C@@H](C(=O)O)CC2)cc1F)c1nnc(Nc2cc(F)c(F)cc2F)o1` [Example 8, (1s,4s)-4-(3-Fluoro-4-(5-(2,4,5-trifluorophenylamino)-1,3,4-oxadiazole-2-carboxamido)phenyl)cyclohexanecarboxylic acid] was 4.7 nM.
